Series [1] has as its system Mycobacterium tuberculosis. Put plainly: Antitubercular activity against Mycobacterium tuberculosis H37Rv reduction in bacterial multiplication incubated for 7 days by luminometric assay. As to conditions: 168 h. It counts as functional.
The nature of series [2]: Cytotoxicity in human MRC5 cells assessed as reduction in cell viability incubated for 24 hrs by resazurin-based cytotoxicity assay.
In the next series the test system is Plasmodium falciparum. Put plainly: Antiplasmodial activity against Plasmodium falciparum K1 infected in human erythrocytes assessed as reduction in parasite multiplication incubated for 72 hrs by Malstat method. It is filed as functional, organism-based. As to conditions: K1, 72 h.
Series [3] can be described thus: Oral bioavailability in healthy human at 500 mg. It counts as ADME, organism-based. As to conditions: in vivo.

Each structure is given as a SMILES string. Converted amounts (≈) assume the structure as drawn.

What is called MIC is the smallest concentration in the dilution series that meets the test's criterion for growth inhibition. Lower therefore signals greater potency. What is called CC50 is the concentration giving 50% cytotoxicity. In general, IC50 refers to the concentration at which inhibition is half-maximal. What is called bioavailability is dose-corrected exposure relative to a reference, in per cent. Higher therefore signals good availability.

Compound `CN(O)C(=O)CCCP(=O)(OCOC(=O)C(C)(C)C)OCOC(=O)C(C)(C)C` returned a minimal inhibitory concentration (MIC) in series [1] greater than 50 µM. Further, the 50% cytotoxic concentration (CC50) at 24 h in series [2] is greater than 64 µM.

`CN(OC(=O)c1ccccc1)C(=O)CCCP(=O)(OCOC(=O)C(C)(C)C)OCOC(=O)C(C)(C)C` had an MIC in series [1] of 50 µM (≈ 26.5 µg/mL). In addition, the IC50 with Plasmodium falciparum turned out to be 1.08 µM. Also, the cytotoxic concentration (CC50) at 24 h in series [2] is greater than 64 µM.

For the compound `CN(OC(=O)Nc1ccccc1)C(=O)CCCP(=O)(OCOC(=O)C(C)(C)C)OCOC(=O)C(C)(C)C`, in the series on Plasmodium falciparum, the IC50 turned out to be 3.34 µM. In addition, the CC50 at 24 h in series [2] was 33.4 µM.

With `CN(OCc1ccc([N+](=O)[O-])o1)C(=O)CCCP(=O)(OCOC(=O)C(C)(C)C)OCOC(=O)C(C)(C)C`, the MIC in series [1] was 12.5 µM (≈ 6.88 µg/mL). Moreover, the IC50 with Plasmodium falciparum stood at 4.42 µM. The CC50 at 24 h in series [2] was found to be 26.3 µM.

Regarding `CN(OCc1ccc([N+](=O)[O-])cc1)C(=O)CCCP(=O)(OCOC(=O)C(C)(C)C)OCOC(=O)C(C)(C)C`, the minimal inhibitory concentration (MIC) in series [1] was greater than 50 µM. In the series with Plasmodium falciparum, the IC50 turned out to be 8.79 µM. For the same compound, in series [2], the CC50 at 24 h was 26.5 µM.

With `CN(OC(=O)NCc1ccccc1)C(=O)CCCP(=O)(OCOC(=O)C(C)(C)C)OCOC(=O)C(C)(C)C`, the MIC in series [1] was greater than 50 µM. In the series with Plasmodium falciparum, the IC50 worked out at 0.64 µM. In series [2], the cytotoxic concentration (CC50) at 24 h was found to be 27.9 µM.

As for `CCNC(=O)ON(C)C(=O)CCCP(=O)(OCOC(=O)C(C)(C)C)OCOC(=O)C(C)(C)C`, the MIC in series [1] was greater than 50 µM. Besides, the IC50 in the series on Plasmodium falciparum was determined as 2.52 µM. The CC50 at 24 h in series [2] was 25.9 µM.

As to `CC(=O)ON(C)C(=O)CCCP(=O)(OCOC(=O)C(C)(C)C)OCOC(=O)C(C)(C)C`, the IC50 with Plasmodium falciparum turned out to be 1.34 µM. Besides, the CC50 at 24 h in series [2] was greater than 64 µM.

Turning to `CCCCCCCCC(=O)ON(C)C(=O)CCCP(=O)(OCOC(=O)C(C)(C)C)OCOC(=O)C(C)(C)C`, in series [1], inhibition of growth (MIC) required 50 µM (≈ 28.3 µg/mL). The IC50 in the series with Plasmodium falciparum turned out to be 1.41 µM. The half-maximal cytotoxic concentration (CC50) at 24 h in series [2] was greater than 64 µM.

`CN(OC(=O)OCc1ccccc1)C(=O)CCCP(=O)(OCOC(=O)C(C)(C)C)OCOC(=O)C(C)(C)C`: in series [1], the minimum inhibitory concentration (MIC) was greater than 50 µM. Also, the IC50 with Plasmodium falciparum is greater than 36 µM. Also, the CC50 at 24 h in series [2] is greater than 42 µM.

As for `CN(OCc1ccc([N+](=O)[O-])s1)C(=O)CCCP(=O)(OCOC(=O)C(C)(C)C)OCOC(=O)C(C)(C)C`, inhibition of growth in series [1] (MIC) required 12.5 µM (≈ 7.08 µg/mL). For the same compound, the half-maximal inhibitory concentration (IC50) with Plasmodium falciparum is 4.69 µM. For the same compound, the half-maximal cytotoxic concentration (CC50) at 24 h in series [2] is 20.5 µM.

For the compound `CCCCCCCCC(=O)Oc1ccc(CON(C)C(=O)CCCP(=O)(OCOC(=O)C(C)(C)C)OCOC(=O)C(C)(C)C)cc1`, in series [1], the minimal inhibitory concentration (MIC) was determined as 50 µM (≈ 33.6 µg/mL). Besides, in the series with Plasmodium falciparum, the half-maximal inhibitory concentration (IC50) worked out at 19 µM. For the same compound, in series [2], the cytotoxic concentration (CC50) at 24 h was greater than 64 µM.

The compound `O=CN(O)CCCP(=O)([O-])O.[Na+]` [FOSMIDOMYCIN SODIUM] displayed an MIC in series [1] greater than 64 µM. This compound gave a bioavailability in series [3] of 20 to 40%. For the same compound, the CC50 at 24 h in series [2] is greater than 64 µM.
